# Patent publication US20210275545A1, “METHOD OF TREATING CANCER PREFERABLY CHARACTERIZED BY EXPRESSION OF A FUSION PROTEIN COMPRISING A MEMBER OF THE E-TWENTY-SIX FAMILY BY ADMINISTERING AN AGENT THAT INHIBITS THE SYNTHESIS AND/OR ACTIVITY OF CORTISOL” (Yeda Research and Development Co. Ltd., priority 2018, published 2021)
# Legend:
# [1] = target: GR and FLI1 (Homo sapiens, UniProt P04150); details: combination of DEX (1 μM) and RU486 (1 μM)
# Procedure: (A) The scheme presents the full length Gaussia luciferase protein, along with either the amino-terminal segment (Gluc1), which was fused to an ETS family transcription factor, or the carboxyl terminal segment (Gluc2), which was fused to GR. Amino acid numbers are indicated. cDNAs encoding most members of the ETS family (16 members altogether) were cloned downstream to Gluc1. […] (B) HEK-293T cells (6×10^3) were seeded in 96-well plates. On the next day, cells were transfected with combinations of the Gluc1 plasmid, encoding a fused ETS family member, and the Gluc2 plasmid encoding a fused full-length GR. […] Cells were then lysed and luminescence was determined in biological triplicates. […] (D and E) HEK-293T cells were seeded in 100-mm dishes. Once they reached sub-maximal density (70%), cells were starved overnight for serum factors. […] Cell extracts were then processed for co-immunoprecipitation assays, in which the endogenous FLI1 or ERG protein was immunoprecipitated using a specific antibody, and immunoblotting was performed using an antibody against GR. EB, empty beads; C, solvent control. Images shown are representative of three biological replicates.
# (A) HEK-293T cells (6×10^3) were seeded in 96-well plates. On the next day, the cells were transfected with combinations of the Gluc1 plasmid, encoding fused FLI1 or ERG, and the Gluc2 plasmid encoding GR. […] Cells were then lysed and luminescence was determined in each sample. Luminescence of vehicle-treated cells was used for normalization. […] (B) HEK-293T cells were seeded on coverslips in 6-well plates. […] Images were processed using the Zeiss ZEN2011 software. […] Bars, 20 μm.
# Protein-fragment complementation assays (PCA): PCA was performed as previously described.
# [2] = test system: A673 cells; assay: MTT cell viability assay, A673 cells; assay type: cell-based; details: FLI1 silenced A673 cells; RU486 10 μM, 48 hours
# [3] = test system: TC-71 cells; assay: Bone-to-lung metastasis of luciferase-labeled TC-71 cells injected into the tibia; assay type: in vivo, SCID mice; details: TC-71 in tibia; 1 mg/kg intraperitoneally
# From the text: FIGS. 6A-E. A GR antagonist and a cortisol-lowering drug impede growth of human xenograft models of Ewing's sarcoma. (A) RD-ES cells (2×10^6) were implanted subcutaneously in the right flank of SCID mice. […] The means of tumor volumes (+SEM) are shown. […] (B) Shown are representative images of immunofluorescent staining for KI67 in paraffin-embedded sections of tumors from A, using an antibody against KI67. Scale bars, 100 μm. Also shown is the scatter plot depicting quantification of KI67 staining in randomly selected 4 fields of a representative tumor from each group. […] (C and D) A673 cells (2×10^6) were implanted in female SCID mice. […] Each group was daily treated with either vehicle, or Metyrapone (25 mg/kg) and tumorigenic growth was monitored. Actual tumor volumes (±SEM) are presented. Also shown are tumors harvested from each group of animals; **p<0.001. (E) TC-71 cells (10^6) engineered to stably express luciferase were injected into the tibia of female SCID mice (5 weeks old; 7 mice per group). […] The control group was similarly treated with the solvent (0.1% tween 80). When the primary tumor reached 10% of body weight, the lungs were excised and examined for metastasis using luciferase bioluminescence imaging. […] Luminescence was quantified and presented in a bar graph. […] Tumor growth was monitored once every 3 days using a caliper. […]
# [4] = test system: A673 cells; assay: Apoptosis assay (annexinV/7-AAD); assay type: cell-based; details: RU486 10 or 20 μM, 48 hours
# Procedure: FIGS. 12A-F: Inhibition of GR activity decreases growth and survival of Ewing's sarcoma cells. […] (B) Increasing concentrations of […], a non-steroidal antagonist of GR [54], were incubated with A673 cells as in A and the MTT assay was performed in triplicates. *, p<0.05. […] Note that the abundance of the endogenous form of FLI1 is much weaker than that of EWS-FLI1. […] MTT assays were performed after 48 hours of treatment. The assay was repeated twice in quadruplets. **, p<0.01, ***, p<0.001. (E) A673 cells were seeded in 100-mm dishes. […] Shown are results of an apoptosis assay performed using an annexinV/7-AAD kit (BioLegend, Inc.). Quantification of the fractions of early and late apoptotic cells is shown in bar plots. The experiment was repeated twice. (F) The indicated ES cells were sparsely seeded in 6-well plates. […] Ten days later, cells were fixed and stained with crystal violet to visualize emerging colonies. Photos are shown along with bar plots showing the quantification of colonies in 5 non-overlapping microscope fields. The experiment was repeated twice. *, p≤0.05; **, p≤0.001. Apoptosis assays: Assays were performed using the FITC Annexin V Apoptosis Detection Kit with 7-AAD (from BioLegend) and analyzed using a BD FACSAria Fusion instrument controlled by BD FACS Diva software v8.0.1 (BD Biosciences).
# [5] = test system: RD-ES tumors; assay: Immunoblotting of RD-ES tumor extracts; assay type: in vivo, SCID mice
# Procedure: FIGS. 13A-B: A GR antagonist and a cortisol-lowering drug induce markers of cell death in animal models of Ewing's sarcoma. (A) RD-ES tumors presented in FIG. 6A were extracted and analyzed using immunoblotting and the indicated antibodies. Note that tumors from three different mice per group were analyzed. (B) Whole extracts prepared from the tumors presented in FIG. 6D were analyzed using immunoblotting and the indicated antibodies. Note that tumors from three different mice per group were analyzed.
# ES animal model studies: All animal experiments were approved by the Weizmann Institute's Animal Care and Use Committee. RD-ES cells and A673 cells (2.5×10^6) were inoculated subcutaneously in the right legs of female SCID mice (6 weeks old). Tumor growth was monitored once every 3 days using a caliper. […] Mice were euthanized when tumor size reached 800-900 mm^3. For metastasis assays, luciferase-labeled TC-71 cells (10^6) were injected orthotopically into the tibia of female SCID mice. Once the primary tumor reached the allowed size limit, we excised the lungs and examined metastases using luciferase bioluminescence imaging.
# [6] = test system: glucocorticoid response element (GRE); details: DEX and RU486 each at 100 nM, 24 hours
# Procedure: HEK-293T cells (1.2×10^4) were seeded in 48-well plates. […] In addition, cells were co-transfected with increasing amounts of a GR expression vector (A), a FLI1-encoding vector (B) or with a combination of both a FLI1 vector and a vector encoding GR, either wild type (C) or a mutant receptor (GRdim−, panel D). Luciferase activity was determined, in biological triplicates, 48 hours later and presented in bar plots. Cells that were pre-transfected with the reporter plasmid were used for normalization. *, p≤0.05; ***, p≤0.001. […] This was followed by cell lysis and determination of luciferase activity in biological triplicates.
# Luciferase-reporter assays: Cells were co-transfected with a luciferase plasmid containing the consensus glucocorticoid response element (GRE) along with pGL3-Control (Promega, Madison, Wis.). Luciferase activity was determined using the dual-luciferase reporter assay system (Promega). Firefly luciferase luminescence values were normalized to Renilla luminescence.
# [7] = test system: CHLA9 and RD-ES cells; assay: Matrigel invasion assay of ES cells; assay type: cell-based; details: DEX 1 μM, RU486 1 μM, D06 10 μM; 20 hours
# Procedure: (A) CHLA9 cells were seeded in 100-mm dishes. Once they reached sub-maximal density, cells were starved overnight for serum factors. […] Cells were then extracted and the lysates were processed for co-immunoprecipitation assays using an antibody against GR followed by immunobloting that used an antibody against EWS. The image shown is representative of 3 biological replicates. Signals were quantified and normalized (see numbers below each lane). EB, empty beads. […] (C-D) CHLA9 cells were seeded on the upper faces of either Transwell migration chambers or Matrigel-coated invasion chambers, and further incubated for 20 hours in full medium. Control siRNAs or siRNAs specific to either GR or EWS-FLI1 were added to cells 24 hours prior to seeding, and both cell migration and invasion were measured 20 hours later. […] Cells that reached the lower faces of the chambers were fixed and stained. Shown are representative images of stained cells. The bar plots show quantification, using ImageJ, of the area covered by cells. *, p≤0.05, **, p≤0.005. Bars, 500 μm. […] The bar plots show quantification, using ImageJ, of the area covered by cells. *, p≤0.05, **, p≤0.005. […]
# (A) RD-ES cells were seeded in 100-mm dishes. […] Cell migration/invasion was determined 20 hours later.
# Chain of GR and FLI1 (P04150 whole entry, the tested form may be a part): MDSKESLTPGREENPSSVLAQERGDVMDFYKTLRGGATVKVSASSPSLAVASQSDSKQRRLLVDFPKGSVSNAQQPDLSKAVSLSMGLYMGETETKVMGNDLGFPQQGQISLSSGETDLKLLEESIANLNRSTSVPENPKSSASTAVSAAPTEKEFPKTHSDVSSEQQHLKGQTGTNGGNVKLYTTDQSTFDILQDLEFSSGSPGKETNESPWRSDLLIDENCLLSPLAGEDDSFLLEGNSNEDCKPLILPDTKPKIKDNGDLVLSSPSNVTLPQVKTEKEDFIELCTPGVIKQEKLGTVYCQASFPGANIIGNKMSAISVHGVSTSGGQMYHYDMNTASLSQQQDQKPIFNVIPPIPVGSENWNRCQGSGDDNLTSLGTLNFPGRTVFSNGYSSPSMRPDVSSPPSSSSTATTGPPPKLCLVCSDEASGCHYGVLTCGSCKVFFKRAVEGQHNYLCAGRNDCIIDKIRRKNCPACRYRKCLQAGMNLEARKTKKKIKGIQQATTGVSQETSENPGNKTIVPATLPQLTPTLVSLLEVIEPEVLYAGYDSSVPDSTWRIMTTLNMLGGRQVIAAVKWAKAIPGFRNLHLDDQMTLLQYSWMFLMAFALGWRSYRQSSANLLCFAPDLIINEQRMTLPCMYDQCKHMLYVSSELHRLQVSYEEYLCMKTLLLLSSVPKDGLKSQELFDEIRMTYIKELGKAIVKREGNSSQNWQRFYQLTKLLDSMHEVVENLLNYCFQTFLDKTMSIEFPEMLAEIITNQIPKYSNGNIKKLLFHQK
structure (smiles),measurement,setting,value
"CC#C[C@]1(O)CC[C@H]2[C@@H]3CCC4=CC(=O)CCC4=C3[C@@H](c3ccc(N(C)C)cc3)C[C@@]21C [RU486, Mifepristone]",effect on DEX-induced physical interaction between GR and FLI1 (PCA),[1],significantly inhibited
same,fraction of metabolically active cells (MTT) after EWS-FLI1 knockdown,[2],further reduced
same,bone-to-lung metastasis (lung luminescence),[3],lessened lung nodules
same,early apoptosis (fraction of cells),[4]; DEX 1 μM,increased
same,late apoptosis (fraction of cells),[4],increased
same,AKT survival pathway in tumors,[5],inhibited
same,LC3B-I abundance in tumors,[5],increased abundance
same,activation of caspase 3 in tumors,[5],no clear activation
same,larger isoform of BIM in tumors,[5],up-regulation
same,p21 abundance in tumors,[5]; three mice per group,increased abundance
same,p27 abundance in tumors,[5]; three mice per group,increased abundance
same,effect of co-treatment on DEX-induced GRE activity,[6],inhibitory
same,matrix invasion,[7],inhibited
